Results published in patent US9556165B2 (priority 2012, dated 2017).
In brackets after ≈: the same amount, converted by molar mass.

Tests used:
Assay in all cases: MIC determination, broth microdilution (CLSI)
Type in all cases: cell-based
[1] = test system: E. coli J62; conditions: Escherichia coli, J62, strain 17; read-out: strain 17 MIC
[2] = test system: A. baumannii ATCC15308; conditions: Acinetobacter baumannii, ATCC15308, strain 9
[3] = test system: K. pneumoniae 60; conditions: Klebsiella pneumoniae, 60, strain 2
[4] = test system: E. coli J62-TEM-3; conditions: Escherichia coli, J62TEM3, read-out: strain 18 MIC, strain 18
[5] = test system: E. coli ATCC25922; conditions: Escherichia coli, ATCC25922, strain 1
[6] = test system: C. freundii K21/3034; conditions: Citrobacter freundii, K21/3034, strain 4
[7] = test system: M. morganii 126/3048; conditions: Morganella morganii, 126/3048, strain 5
[8] = test system: E. cloacae 34654; conditions: Enterobacter cloacae, 34654, strain 3
[9] = test system: P. aeruginosa 2297-con (AmpC derepressed); conditions: Pseudomonas aeruginosa, read-out: strain 8 MIC, strain 8
[10] = test system: strain 20
[11] = test system: P. aeruginosa PAO1; conditions: Pseudomonas aeruginosa, PAO1, strain 6
[12] = test system: strain 21
[13] = test system: P. aeruginosa 2297 (AmpC wt); conditions: Pseudomonas aeruginosa, strain 7
[14] = test system: S. pneumoniae 113; conditions: Streptococcus pneumoniae, 113, strain 14; read-out: strain 14 MIC
[15] = test system: S. maltophilia ICB7569; conditions: Stenotrophomonas maltophilia, ICB7569, strain 10
[16] = test system: strain 19

Row | Compound | MIC [1] | MIC [2] | MIC [3] | MIC [4] | MIC [5] | MIC [6] | MIC [7] | MIC [8] | MIC [9] | MIC [10] | MIC [11] | MIC [12] | MIC [13] | MIC [14] | MIC [15] | MIC [16]
1 | CC1(C)[C@H](NC(=O)/C(=N\OCCOc2ccc(C(=N)N)c(O)c2)c2csc(N)n2)C(=O)N1OS(=O)(=O)O [Example 1, (2Z)-2-(2-Amino-1,3-thiazol-4-yl)-2-{[2-(4-carbamimidoyl-3-hydroxyphenoxy)ethoxy]imino}-N-[(3S)-2,2-dimethyl-4-oxo-1-(sulfooxy)azetidin-3-yl]ethanamide] | 0.25 µg/mL (≈ 0.448 µM) | 8 µg/mL (≈ 14.3 µM) | 0.25 µg/mL (≈ 0.448 µM) | 16 µg/mL (≈ 28.7 µM) | 0.25 µg/mL (≈ 0.448 µM) | 0.5 µg/mL (≈ 0.897 µM) | 0.125 µg/mL (≈ 0.224 µM) | 0.5 µg/mL (≈ 0.897 µM) | 4 µg/mL (≈ 7.17 µM) | 0.25 µg/mL (≈ 0.448 µM) | 4 µg/mL (≈ 7.17 µM) | 0.25 µg/mL (≈ 0.448 µM) | 8 µg/mL (≈ 14.3 µM) | 16 µg/mL (≈ 28.7 µM) | 8 µg/mL (≈ 14.3 µM) | 0.25 µg/mL (≈ 0.448 µM)
2 | C[C@H]1[C@H](NC(=O)/C(=N\OCCSc2ccc(C(=N)N)cc2)c2csc(N)n2)C(=O)N1S(=O)(=O)O [Example 6, (2S,3S)-3-{[(2Z)-2-(2-Amino-1,3-thiazol-4-yl)-2-({2-[(4-carbamimidoylphenyl)sulfanyl]ethoxy}imino)acetyl]amino}-2-methyl-4-oxoazetidine-1-sulfonic acid] | 0.25 µg/mL (≈ 0.474 µM) | 1 µg/mL (≈ 1.9 µM) | 0.25 µg/mL (≈ 0.474 µM) | 16 µg/mL (≈ 30.3 µM) | 0.125 µg/mL (≈ 0.237 µM) | ≤ 0.125 µg/mL | ≤ 0.125 µg/mL | 0.125 µg/mL (≈ 0.237 µM) | 16 µg/mL (≈ 30.3 µM) | 0.25 µg/mL (≈ 0.474 µM) | 4 µg/mL (≈ 7.58 µM) | 0.25 µg/mL (≈ 0.474 µM) | 8 µg/mL (≈ 15.2 µM) | 4 µg/mL (≈ 7.58 µM) | 32 µg/mL (≈ 60.7 µM) | 0.25 µg/mL (≈ 0.474 µM)
3 | C[C@@H]1[C@H](NC(=O)/C(=N\OCCOc2ccc(C(=N)N)cc2)c2csc(N)n2)C(=O)N1OS(=O)(=O)O [Example 10, (2Z)-2-(2-Amino-1,3-thiazol-4-yl)-2-{[2-(4-carbamimidoylphenoxy)ethoxy]imino}-N-[(2R,3S)-2-methyl-4-oxo-1-(sulfooxy)azetidin-3-yl]ethanamide] | 0.5 µg/mL (≈ 0.948 µM) | 8 µg/mL (≈ 15.2 µM) | 2 µg/mL (≈ 3.79 µM) |  | 0.5 µg/mL (≈ 0.948 µM) | 1 µg/mL (≈ 1.9 µM) | 4 µg/mL (≈ 7.58 µM) | 1 µg/mL (≈ 1.9 µM) |  | 0.5 µg/mL (≈ 0.948 µM) | 8 µg/mL (≈ 15.2 µM) | 0.5 µg/mL (≈ 0.948 µM) | 8 µg/mL (≈ 15.2 µM) | 2 µg/mL (≈ 3.79 µM) |  | 0.5 µg/mL (≈ 0.948 µM)
4 | C[C@H]1[C@H](NC(=O)/C(=N\OCCOc2ccc(C(=N)N)cc2F)c2csc(N)n2)C(=O)N1S(=O)(=O)O [Example 19, (2S,3S)-3-{[(2Z)-2-(2-Amino-1,3-thiazol-4-yl)-2-{[2-(4-carbamimidoyl-2-fluorophenoxy)ethoxy]imino}acetyl]amino}-2-methyl-4-oxoazetidine-1-sulfonic acid] | 0.5 µg/mL (≈ 0.944 µM) | 4 µg/mL (≈ 7.55 µM) | 0.125 µg/mL (≈ 0.236 µM) | 32 µg/mL (≈ 60.4 µM) | 0.5 µg/mL (≈ 0.944 µM) | 0.5 µg/mL (≈ 0.944 µM) | 0.25 µg/mL (≈ 0.472 µM) | 0.5 µg/mL (≈ 0.944 µM) |  | 1 µg/mL (≈ 1.89 µM) | 8 µg/mL (≈ 15.1 µM) | 1 µg/mL (≈ 1.89 µM) | 16 µg/mL (≈ 30.2 µM) | 16 µg/mL (≈ 30.2 µM) |  | 0.5 µg/mL (≈ 0.944 µM)
